Experimental data reported in patent publication US5773236A, “Assay for glutathiane transferase using polyhaloaryl-substituted reporter molecules” (Molecule Probes, Inc., priority 1997, dated 1998).
Counter-ions that a name gives are not always drawn.

What was measured:
3T3 or BPAE cells [1] = experiment: Intracellular products of tracers by TLC and HPLC (Example 67); assay type: cell-based; conditions: 5 μM, 1 hr, 37° C.
Procedure: Reaction mixtures with and without GST using Compound 1 as the substrate, are prepared as described in Example 48. The solutions are mixed overnight with three volumes of ethyl acetate followed by centrifugation at 15,000×g for 30 min to separate the organic and aqueous layers. HPLC analysis using a Rainin HPLC equipped with a C18, 5 μm, 100 Å, 4.6×250 mm MICROSORB-MV reverse phase column. Products are separated in 30 min with a gradient of 5% to 95% solvent B in Solvent A at a flow rate of 1 mL/min, where solvent A is 0.1M triethylammonium acetate, pH 7.0, and solvent B is acetonitrile (see FIG. 1). Products are detected by reading the absorbance at 500 nm. Peaks are identified and, if desired, quantitated by comparing retention times with authentic samples of the glutathione adduct of Compound 45 (Example 45).
(§1) Cultures of either 3T3 or BPAE cells are treated with 5 μM solutions of either Compound 4,5-(pentachlorobenzoylamino)fluorescein diacetate, 5-pentafluorobenzenesulfonylamino)fluorescein diacetate, or 5-chloromethylfluorescein diacetate (CMFDA, Molecular Probes, Inc.) for 1 hr at 37° C. The cells are spun, resuspended in distilled water and lysed by repeated freezing and thawing. 20 μL of the cell lysate supernatant is diluted with 30 μL of SDS-PAGE sample buffer, containing β-mercaptoethanol. The cell pellets are dispersed in 50 μL of water. 20 μL of each sample is added to 30 μL of the same sample buffer. The samples are heated at 95° C. for 5 min. and loaded on 4-20% polyacrylamide gradient minigels. At the completion of the run the gels are observed with UV excitation.
Alternatively, the above samples are analyzed by TLC and by HPLC, as described in Examples 48 and 52. […] Coinjection with authentic Compound 1 confirms the identity of the substrate peak and coinjection with the authentic Compound 1-GSH adduct (Example 45) confirms the identify of the other fluorescent product.

3T3 or BPAE cells [2] = experiment: Intracellular products of tracers by gel electrophoresis (Example 67); assay type: cell-based; conditions: 5 μM, 1 hr, 37° C.
Procedure: as §1

CRE BAG 2 cells = experiment: Peptidase substrates in live cells, fluorescence microscopy (Example 59); assay type: cell-based; conditions: 1 μM, 0.5 μM or 0.1 μM, 37° C., 30 minutes
Procedure: CRE BAG 2 cells obtained from American Type Culture Collection Co., Rockville, Md. are used. They are grown in a humidified atmosphere of 5% CO2 in D-MEM supplemented with 10% calf serum, 50 μg/mL gentamycin, 300 μg/mL L-glutamine and 10 mM HEPES, pH 7.4. 1 mM stock solutions of Compound 13-Leu (Example 13) and Compound 13-Arg substrate are prepared in DMSO. CRE BAG 2 cells are trypsinized, washed with phosphate-buffered saline, pH 7.2 and resuspended in 1 mL of the same buffer. 1 μL, 0.5 μL or 0.1 μL of the stock reagents is added to 1 mL of the cell suspension to obtain a final concentration of 1 μM, 0.5 μM or 0.1 μM. Incubation is carried out at 37° C. for 30 minutes. Cells are centrifuged to form a pellet, the supernatant is discarded and the cells are washed with PBS, pH 7.2 and suspended in the same buffer. Cells are mounted on slides and observed by fluorescence microscopy using filters optimized for fluorescein.

[3] = tested on: glutathione S-transferase; experiment: Other derivatives tested as GSH/GST substrates, TLC (Example 54); assay type: biochemical; conditions: 0.2-0.5 mM compound in 50 mM MOPS, pH 7.5, TLC
Procedure: The reaction is then stopped by adding 10% H2 O2.
The PHA compound (ethanol stock solution, 2 mM) and reduced glutathione (phosphate buffer stock solution, 5 mM) are incubated under the same conditions as described above without addition of glutathione S-transferase.
Commercial precast silica gel TLC plates are used to follow both the enzymatic reaction and the blank control reaction. […] UV absorbance by the PHA substituent always permits detection of both the compound and any glutathione adduct by fluorescence quenching when the TLC sheet is illuminated with 254-nm radiation. Fluorescent compounds can be directly detected using appropriate UV or visible illumination. […] Furthermore, the intensity of the signal on the TLC sheet often can be enhanced by methods well known in the art, such as by application of a phosphomolybdate spray, iodine vapors or a similar detection reagent. Radioactive products can be directly detected and quantitated by exposure to a suitable film using methods well known in the art.

alkaline phosphatase = experiment: Detection of alkaline phosphatase on a membrane blot (Example 63); assay type: biochemical; conditions: nitrocellulose; for amount of enzyme detected, before washing: 35 minutes, 37° C., prior to washing the membranes
Procedure: The reagents used are: 1) 5-(pentafluorobenzoylamino)fluorescein diphosphate, tetraammonium salt (Compound 47; Example 47), 10 mM in 0.1M Tris, pH 8.5; 2) fluorescein diphosphate (FDP; Molecular Probes, #F-2999), 10 mM in 0.1M Tris, pH 8.5; 3) BLOCKER Blotto in PBS (Pierce Chemical Company); 4) 0.2M glycine, pH 8.8; 5) 0.05M MgCl2, 6) 0.1M Tris, pH 8.5; 7) wash buffer: 20 mM Tris, 137 mM NaCl, 0.5% TWEEN 20, pH 7.5. Stock solutions of alkaline phosphatase are diluted in 0.1M Tris, pH 8.5 to obtain solutions with the following concentrations: 1 μg/μL, 0.5 μg/μL, 0.25 μg/μL, 0.1 μg/μL, 50 ng/μL, 10 ng/μL, 1 ng/μL and 0 ng/μL. 1 μL of each diluted solution is spotted on a nitrocellulose membrane (1"×1"), pore size 0.45 μM, and allowed to dry overnight at room temperature. Blocking is done by treating both nitrocellulose blots with 2 mL of supernatant liquid from the BLOCKER Blotto solution for 30 minutes at room temperature. The following mixture is prepared: 1.5 mL of 0.2M glycine, pH 8.8+0.4 mL of 0.05M MgCl2 +100 μL of 0.1M Tris, pH 8.5+10 μL of 10 mM substrate stock solution (either PFB-FDP or FDP). Blotto supernatant on the blots is replaced with the above mixture and incubation is carried out for 35 minutes at 37° C. A Polaroid image of the blots is obtained by illuminating with reflected UV light at 254 nm. Exposure time is 5-10 sec with an aperture setting of F=4.5 and filter #15 is used to block unwanted light. Both Compound 47 and FDP can detect ~50 ng of the enzyme prior to washing the membranes. The blots are washed twice for 5 minutes each time with 2 mL of wash buffer and an image is obtained using the same settings and exposure times as described above.

NIH-3T3 cells = experiment: Hydrolysis of esterase substrates and product retention in live cells, flow cytometry (Example 65); assay type: cell-based
Procedure: NIH-3T3 cells obtained from American Type Culture Collection Co., Rockville, Md. are used. They are grown in a humidified atmosphere of 5% CO2 in D-MEM supplemented with 10% bovine calf serum (BCS), 50 μg/mL gentamycin, 300 μg/mL L-glutamine and 10 mM HEPES, pH 7.4. Stock solutions of Compound 4 (Example 3), 10 mM in DMSO, and Compound 48 (Example 50), 5 mM in DMSO, are prepared. NIH-3T3 cells are trypsinized, washed with phosphate-buffered saline (PBS), pH 7.2 and resuspended in D-MEM with 10% BCS. To 1 mL of the cell suspension is added the dye stock solution to obtain a final dye concentration of 0.1 mM. Incubation is carried out at 37° C. for 30 minutes followed by incubation on ice for 30 minutes. Cells are centrifuged to form a pellet, the supernatant is discarded and the cells are washed twice with PBS, pH 7.2 and suspended in the same buffer. Cells are analyzed by flow cytometry using the Becton-Dickinson FACS Vantage flow cytometer. After analysis on the flow cytometer, cells are placed at 37° C. and analyzed by flow cytometry at frequent intervals over a period of 75 minutes. Cells stained with either of the dyes are at least 20-fold brighter than the autofluorescent control cells. Approximately 45% of Compound 4 and 35% of Compound 48 are still retained by the cells after 75 minutes of incubation at 37° C.

[4] = tested on: glutathione transferase (GST); experiment: Reactivity with glutathione catalyzed by glutathione transferase, TLC (Example 50); assay type: biochemical
Procedure: The suitability of Compound 1 (Example 1) and 5-(pentachlorobenzoylamino)fluorescein (Compound 48) as substrates for glutathione transferase (GST) in the presence of excess glutathione (GSH) is tested in vitro as follows: 5 mM GSH, 0.5 mM substrate (Compound 1 or Compound 48) and 20 micrograms GST (Sigma #G-6511, 70 units/mg) are combined in 0.1M phosphate buffer, pH 8.0, for 1 hour at 37° C. The reaction is terminated by spotting approximately 3 μL on silica gel TLC plates. The plate is developed using 1-butanol: methanol: water (3:1:1). […] Analysis of the reaction mixture by HPLC as in Example 52 confirms that the reaction product of Compound 1 with GSH is identical to the authentic Compound 1-GSH adduct as prepared in Example 45 (Compound 45).

Compound: CC(=O)Oc1ccc2c(c1)Oc1cc(OC(C)=O)ccc1C21OC(=O)c2cc(NC(=O)c3c(Cl)c(Cl)c(Cl)c(Cl)c3Cl)ccc21 [5-(pentachlorobenzoylamino)fluorescein diacetate]
- products by TLC (3T3 or BPAE cells [1]): Only a single, fast-moving fluorescent band corresponding to authentic 5-(pentachlorobenzoylamino)fluorescein
- fluorescent bands on gel (region of the tracking dye) (3T3 or BPAE cells [2]): a single band in the region of the tracking dye
- protein adduct bands on gel (3T3 or BPAE cells [2]): do not shown a protein adduct

Compound: CC(=O)Oc1ccc2c(c1)Oc1cc(OC(C)=O)ccc1C21OC(=O)c2cc(NS(=O)(=O)c3c(F)c(F)c(F)c(F)c3F)ccc21 [5-pentafluorobenzenesulfonylamino)fluorescein diacetate]
- products by TLC (3T3 or BPAE cells [1]): formation of a GSH adduct
- fluorescent bands on gel (region of the tracking dye) (3T3 or BPAE cells [2]): Two closely spaced green fluorescent bands
- protein adduct bands on gel (3T3 or BPAE cells [2]): No other band corresponding to proteins is visible

Compound: CC(=O)Oc1ccc2c(c1)Oc1cc(OC(C)=O)ccc1C21OC(=O)c2cc(CCl)ccc21 [CMFDA, 5-chloromethylfluorescein diacetate, reference compound]
- products by HPLC (3T3 or BPAE cells [1]; HPLC): the glutathione adduct and additional small peaks
- products by TLC (3T3 or BPAE cells [1]): multiple TLC bands
- protein adduct bands on gel (3T3 or BPAE cells [2]): multiple fluorescent bands

Compound: CC(C)C[C@H](N)C(=O)Nc1ccc2c(c1)Oc1cc(NC(=O)c3c(F)c(F)c(F)c(F)c3F)ccc1C21OC(=O)c2ccccc21 (stereo partly drawn) [Compound 13-Leu, Rhodamine 110, pentafluorobenzoyl amide, L-leucine amide, hydrochloride]
- staining of cells, fluorescence microscopy (CRE BAG 2 cells): punctate green fluorescence associated with organelles

Compound: O=c1[nH][nH]c(=O)c2c(F)c(F)c(F)c(F)c12 [Compound 43, tetrafluorophthalhydrazide]
- glutathione adducts detected [3]: detectable glutathione adducts

Compound: O=c1cc(-c2c(F)c(F)c(F)c(F)c2F)c2ccc(O)cc2o1 [Compound 44, 7-hydroxy-4-pentafluorophenylcoumarin]
- glutathione adducts detected [3]: detectable glutathione adducts

Compound: O=C1OC2(c3ccc(OP(=O)(O)O)cc3Oc3cc(OP(=O)(O)O)ccc32)c2ccc(NC(=O)c3c(F)c(F)c(F)c(F)c3F)cc21 [Compound 47, 5-(pentafluorobenzoylamino)fluorescein diphosphate, tetraammonium salt]
- amount of enzyme detected, before washing (alkaline phosphatase): ~ 50 ng
- amount of enzyme detected, after washing (alkaline phosphatase; washed twice for 5 minutes, per spot): ~ 50 ng

Compound: O=C1OC2(c3ccc(O)cc3Oc3cc(O)ccc32)c2ccc(NC(=O)c3c(Cl)c(Cl)c(Cl)c(Cl)c3Cl)cc21 [Compound 48, 5-(pentachlorobenzoylamino)fluorescein]
- brightness versus autofluorescent control cells (NIH-3T3 cells; 0.1 mM dye, 37° C., 30 minutes then on ice 30 minutes): at least 20 fold
- dye retained by the cells (NIH-3T3 cells; after 75 minutes of incubation at 37° C.): ~35%
- adduct formation with glutathione in presence of GST ([4]; 5 mM GSH, 0.5 mM substrate, 20 micrograms GST, pH 8.0, 1 hour, 37° C.): does not form a new adduct
- reaction in control without GST ([4]; GST omitted): very low or no reaction

Compound: O=C1OC2(c3ccc(OP(=O)(O)O)cc3Oc3cc(OP(=O)(O)O)ccc32)c2ccccc21 [FDP, fluorescein diphosphate, reference compound]
- amount of enzyme detected, before washing (alkaline phosphatase): ~ 50 ng
- detection of enzyme after washing (alkaline phosphatase; washed twice for 5 minutes): unable to detect the presence of any enzyme
